Test results as given in US11096928B2, “Pharmaceutical composition” (WUHAN LL SCIENCE AND TECHNOLOGY DEVELOPMENT CO., LTD., priority 2016, dated 2021).

Assays:
[1] = system: rats with heart failure by coronary artery ligation (CAL); assay: Therapeutic effect of pharmaceutical compositions on acute heart failure caused by coronary artery ligation; assay type: in vivo, rat; settings: Sprague-Dawley rats, after 4 weeks of continuous administration; for EF (left ventricular ejection fraction): cardiac ultrasound
Text: Male Sprague-Dawley rats (purchased from Beijing Weitong Lihua Experimental Animal Technology Co., Ltd.) were used to perform heart failure model by coronary artery ligation (CAL). One week after surgery, the myocardial infarct size of the rats was examined by echocardiography. […] Operations on the normal control group were the same as above, except for the absence of arterial ligation. Rats with successful modeling were randomly divided into 9 groups, wherein each group has 10 rats. […] Cardiac function was detected by cardiac ultrasound after 4 weeks of continuous administration, and changes of mean arterial pressure (MAP) and left ventricular ejection fraction (EF) were analyzed.

[2] = system: spontaneously hypertensive rats; assay: Antihypertensive efficacy test of pharmaceutical compositions in spontaneously hypertensive rats; assay type: in vivo, rat; settings: SHR, intragastric once a day, 28 days after administration
Method: After that, the blood pressure sensing catheter of hypertension implant was inserted into their abdominal aorta, while the implant was fixed to the abdominal wall, and then postoperative daily care was performed after suturing. […] A group of WKY rats (provided by Beijing Weitong Lihua Co., Ltd.) was set as a normal control group, which were administered intragastrically once a day at a volume calculated by 4 mL/kg for a total of 4 weeks. Each group were administered as follows: The normal control group were not administered; The blank control group were administered 0.5% CMC-Na; […] The valsartan group were administered valsartan dissolved in 0.5% CMC-Na, at a dose of 30 mg/kg; The Azilsartan kaMedoxoMil were administered Azilsartan kaMedoxoMil dissolved in 0.5% CMC-Na, at a dose of 1 mg (azilsartan effective dose)/kg; The AHU […] group were administered AHU 377 K, dissolved in 0.5% CMC-Na, at a dose of 30 mg/kg; The AHU377 ammonium salt group were administered AHU377 ammonium salt, dissolved in 0.5% CMC-Na, at a dose of 30 mg/kg; The LCZ696 group were administered LCZ696, dissolved in 0.5% CMC-Na, at a dose of 60 mg/kg; […]

[3] = system: chronic heart failure rats; assay: Therapeutic effect of pharmaceutical composition on chronic heart failure rats (high-salt fed DSS rats); assay type: in vivo, rat; settings: high-salt (8% sodium chloride) fed DSS rats, administration for 7 weeks, analysis at 18-weeks-age
Method: Five-week-old male DSS rats (purchased from Beijing Weitong Lihua Experimental Animal Technology Co., Ltd.) were randomly divided into 10 groups, among which, one group were fed with low salt as normal control group and the other 9 groups were fed with high salt. The low-salt feeding group were administered 0.3% sodium chloride, and high-salt feeding group were administered 8% sodium chloride to induce hypertension-cardiac hypertrophy-heart failure to form pathological model. […] The rats were killed at 18-weeks-age for analysis of blood pressure and atrial natriuretic peptide (ANP).

[4] = system: spontaneously hypertensive rats; assay: Antihypertensive efficacy test of the compound 1K in spontaneously hypertensive rats; assay type: in vivo, rat; settings: SHR, intragastric, 1 mg/kg; for Heart rates change, 1 hour after administration / Systolic blood pressure change, 1 hour after administration / Heart rates change, 3 hours after administration / Systolic blood pressure change, 3 hours after administration / Heart rates change, 5 hours after administration / Systolic blood pressure change, 5 hours after administration / Heart rates change, 7 hours after administration / Systolic blood pressure change, 7 hours after administration / Heart rates change, 10 hours after administration / Systolic blood pressure change, 10 hours after administration / Heart rates change, 24 hours after administration / Systolic blood pressure change, 24 hours after administration / Heart rates change, before administration / Systolic blood pressure change, before administration: average ± standard error; for Heart rates change, before administration / Systolic blood pressure change, before administration: before administration (reference value)
Method: 12-week-old spontaneously hypertensive rats (hereinafter referred to as SHR, purchased from Beijing Weitong Lihua Experimental Animal Technology Co., Ltd.) were anesthetized with 2.5% sodium pentobarbital for intraperitoneal injection. After that, the blood pressure sensing catheter of hypertension implant was inserted into their abdominal aorta, while the implant was fixed to the abdominal wall, and then postoperative daily care was performed after suturing. Rats with systolic blood pressure exceeding 160 mm Hg were divided into 3 groups (control group, compound 1 group and compound 1K group), wherein each group has 8 rats. The control group was administrated 0.5% sodium carboxymethyl cellulose (hereinafter referred to as CMC-Na); the compound 1 group and the compound 1K group were respectively administered the compound 1 and the compound 1K, both of which were dissolved by 0.5% CMC-Na, by intragastric administration, at a dose of 1 mg/kg (calculated by the effective dose of valsartan) and a volume calculated by 4 mL/kg. The systolic blood pressure and heart rate of SHR were compared before and after administration (the systolic blood pressure and heart rate of SHR before administration as reference value), which were detected three times at each time point with the average value recorded.

Row | SMILES | MAP (mean arterial pressure) [1] | EF (left ventricular ejection fraction) [1] | heart rate change [2] [times/minute] | systolic pressure change [2] [mmHg] | ANP rate of change [3] | systolic pressure change [3] | Heart rates change, 1 hour after administration [4] [times/minute] | Systolic blood pressure change, 1 hour after administration [4] [mmHg] | Heart rates change, 3 hours after administration [4] [times/minute] | Systolic blood pressure change, 3 hours after administration [4] [mmHg] | Heart rates change, 5 hours after administration [4] [times/minute] | Systolic blood pressure change, 5 hours after administration [4] [mmHg] | Heart rates change, 7 hours after administration [4] [times/minute] | Systolic blood pressure change, 7 hours after administration [4] [mmHg] | Heart rates change, 10 hours after administration [4] [times/minute] | Systolic blood pressure change, 10 hours after administration [4] [mmHg] | Heart rates change, 24 hours after administration [4] [times/minute] | Systolic blood pressure change, 24 hours after administration [4] [mmHg] | Heart rates change, before administration [4] [times/minute] | Systolic blood pressure change, before administration [4] [mmHg] | also measured
1 | CCOc1nc2cccc(C(=O)OCc3oc(=O)oc3C)c2n1Cc1ccc(-c2ccccc2-c2noc(=O)[n-]2)cc1.[K+] [Azilsartan kaMedoxoMil] | 150.4sium^ mmHg | 45.14siu % | −11.1 ± 3.7 | −33.5 ± 3.2 | 132.3s^ % | −36.3sium mmHg |  |  |  |  |  |  |  |  |  |  |  |  |  |  | 
2 | CCOC(=O)[C@H](C)C[C@@H](Cc1ccc(-c2ccccc2)cc1)NC(=O)CCC(=O)O.N [AHU377 ammonium salt, Ammonium 4-(((2S,4R)-1-([1,1′-biphenyl]-4-yl)-5-ethoxy-4-methyl-5-oxopentane-2-yl)amino)-4-oxobutanoate] | 172oup mmHg |  | 3 ± 2.1 | −18.5 ± 2.5 | 135.3p % | −18.3p am mmHg |  |  |  |  |  |  |  |  |  |  |  |  |  |  | 
3 | CCOC(=O)[C@H](C)C[C@@H](Cc1ccc(-c2ccccc2)cc1)NC(=O)CCC(=O)[O-].[K+] [AHU 377K, potassium 4-(((2S,4R)-1-([1,1′-biphenyl]-4-yl)-5-ethoxy-4-methyl-5-oxopentan-2-yl)amino)-4-oxobutanoate] | 170.6p7K mmHg | 37.46p7K % | −8.1 ± 2.8 | −15.6 ± 2.5 | 143.6p % | −20.6p7Km mmHg |  |  |  |  |  |  |  |  |  |  |  |  |  |  | 
4 | CCOc1nc2cccc(C(=O)OC(C)OC(=O)OCc3nc(C)c(C)nc3C)c2n1Cc1ccc(-c2ccccc2-c2noc(=O)[nH]2)cc1 (centres unmarked) [Compound 1] |  |  |  |  |  |  | −3.4 ± 2.6 | −4.9 ± 4.8 | −2.33 ± 2.6 | −22.0 ± 3.6 | −6.5 ± 2.8 | −30.5 ± 3.5 | −6.2 ± 3.0 | −38.8 ± 2.3 | −12.3 ± 2.8 | −33.0 ± 1.7 | −6.7 ± 2.6 | −10.2 ± 2.1 | 0.0 ± 0.0 | 0.0 ± 0.0 | melting point: 135 to 145 °C
5 | CCCCC(=O)N(Cc1ccc(-c2ccccc2-c2nnn[nH]2)cc1)[C@H](C(=O)O)C(C)C [valsartan] |  | 35.3arta^ % | −10.6 ± 3.2 | −30.6 ± 3.5 | 125 ± 52% | −32.4 ± 4.6 mmHg |  |  |  |  |  |  |  |  |  |  |  |  |  |  | 
6 | CCOc1nc2cccc(C(=O)OC(C)OC(=O)OCc3nc(C)c(C)nc3C)c2n1Cc1ccc(-c2ccccc2-c2noc(=O)[n-]2)cc1.[K+] (centres unmarked) [Compound 1K] | 145.5 ± 8.9 mmHg | 48.6 ± 5.3% | −29.3 ± 4.1 | −50.4 ± 4.7 | 158 ± 7% | −48.5 ± 7.5 mmHg | −3.6 ± 2.4 | −7.0 ± 3.4 | −5.0 ± 2.5 | −34.3 ± 1.9 | −10.1 ± 3.0 | −46.5 ± 2.5 | −17.5 ± 3.0 | −49.4 ± 4.1 | −25.4 ± 2.4 | −45.3 ± 3.3 | −28.6 ± 8 | −25.9 ± 3.4 | 0.0 ± 0.0 | 0.0 ± 0.0 | antihypertensive effect compared with the compound 1 group ([4]; result in words): more potent with longer-lasting antihypertensive effect; effect of lowering heart rate compared with the compound 1 group ([4]; result in words): more potent with longer-lasting effect of lowering heart rate
